Key:
primary T cells = assay: response of mitogen (PHA) stimulated T-cells to selective 5-HT1A inhibitors; format: cell-based; conditions: mitogen (PHA) stimulated T cell cultures, at the concentrations tested (FIG. 2)
[1] = system: neoplastic B and T cell lines; assay: inhibition of activation of neoplastic B and T cell lines; format: cell-based
Text: Each of the tested compounds has a high affinity for the 5-HT1A receptor and was expected to inhibit the receptor's activity equally well.

Row | Compound | inhibition of the activation of primary T cells (primary T cells) | inhibition of the activation of neoplastic B and T cell lines [1]
1 | WAY-100635 | little or no effects | 
2 | COc1ccccc1N1CCN(CCN(C(=O)c2ccc(F)cc2)c2ccccn2)CC1 [p-MPPF] | little or no effects | 
3 | COc1ccccc1N1CCN(CCCCN2C(=O)c3ccccc3C2=O)CC1 [NAN-190] | reproducibly inhibited | reproducibly inhibited
